Series [1] relates to Mus musculus. The experiment in a line: Anticonvulsant activity in ip injected albino mouse assessed as protection against 50 mA current-induced seizure after 0.5 to 4 hrs interval by maximal electroshock seizure test. The class given is functional. The following applies: time hrs 0.5-4. (In general: In the maximal electroshock model the usual endpoint is tonic extension of the hind limbs.)

Series [2] is described as follows: Protective index, ratio of TD50 for neurotoxicity in ip injected albino mouse to ED50 for anticonvulsant activity in albino mouse assessed as pentylenetetrazole-induced seizure. The series is classed as toxicity, organism-based. The settings on record: in vivo.
Series [3] can be described thus: Neurotoxicity in ip injected albino mouse. The following applies: in vivo. The class given is toxicity, organism-based.
Series [4] can be described thus: Protective index, ratio of TD50 for neurotoxicity in ip injected albino mouse to ED50 for anticonvulsant activity in ip injected albino mouse assessed as protection against 50 mA current-induced seizure. The series is classed as toxicity, organism-based. The following applies: in vivo.
The species named for series [5] is Mus musculus. The experiment in a line: Anticonvulsant activity in albino mouse assessed as pentylenetetrazole-induced seizure measured after 30 mins. The class given is functional. The settings on record: 0.5 h.
The nature of series [6]: Neurotoxicity in albino rat at 100 mg/kg, ip after 30 mins (reference value: 2%). The series is classed as toxicity, organism-based. The following applies: in vivo, 0.5 h.
The test system of series [7] is Mus musculus. In words: Anticonvulsant activity in ip injected albino mouse assessed as protection against 50 mA current-induced seizure by maximal electroshock seizure test. The series is classed as functional.
Series [8] has as its system Mus musculus. In words: Anticonvulsant activity in albino mouse assessed as protection against 50 mA current-induced seizure at 25 mg/kg by maximal electroshock seizure test relative to control. The class given is functional.
The nature of series [9]: Protective index, ratio of TD50 for neurotoxicity in mouse to ED50 for anticonvulsant activity in mouse assessed as protection against current-induced seizure. The class given is toxicity. The settings on record: in vivo, read-out: PI.
The nature of series [10]: Neurotoxicity in mouse by rotarod test. The class given is toxicity. The settings on record: in vivo.
For series [11], the species on record is Mus musculus. In words: Anticonvulsant activity in mouse assessed as protection against current-induced seizure by maximal electroshock seizure test. The class given is functional.
Series [12] is filed under the species Mus musculus. In words: Anticonvulsant activity in albino mouse assessed as protection against 50 mA current-induced seizure by maximal electroshock seizure test. The series is classed as functional.
For series [13], the species on record is Mus musculus. In words: Anticonvulsant activity in albino mouse assessed as pentylenetetrazole-induced seizure. The series is classed as functional.
The nature of series [14]: Lipophilicity, log P of the compound. The settings on record: octanol/water. The series is classed as physicochemical.
The species named for series [15] is Mus musculus. The experiment in a line: Anticonvulsant activity in albino mouse assessed as current-induced seizure latency time. The class given is functional.

A value given as a limit tells only on which side of the number the result lay.

With `CN(C)Nc1ccc(/C=N/Nc2nnc(-c3ccccc3)nc2Cc2cccc(Cl)c2)cc1`, the values for the ED50 with Mus musculus [1] and in the series listed under Mus musculus [5] were 54.3 mg/kg and 92 mg/kg, respectively. Besides, the values for the selectivity ratio in [2] (read-out: Ratio) and in series [4] (read-out: Ratio) were 4.73 and 8.01, respectively. Besides, in series [3], the TD50 is 435 mg/kg.
For the molecule `CN(C)CCOc1ccc2c(c1)/C(=N/NC(N)=O)C(=O)N2`, the Activity in series [6] was found to be 7%.
The same measure, in the same setting: next, `CN(C)CCOc1ccc2c(c1)C(=O)C(=O)N2`: 7%.
On to `Nc1nnc(C(=O)N2CCCC2c2noc3cc(F)ccc23)c(N)n1` (configuration not stated), for which the ED50 with Mus musculus [7] came to 7.1 mg/kg. Further, the TD50 in [3] was more than 200 mg/kg. Moreover, the selectivity ratio in [4] (read-out: Ratio) was more than 28.2.
On to `Clc1ccc(Nc2nnc(-c3ccncc3)o2)cc1`, for which the Activity in the series with Mus musculus [8] worked out at 100%.
As to `Nc1nc(-c2ccccc2)nnc1C(=O)N1CCCC1c1noc2cc(Cl)ccc12` (configuration not stated), in the series with Mus musculus [7], the ED50 was determined as 5.7 mg/kg. The molecule also yielded a TD50 in series [3] of 103 mg/kg. The selectivity ratio in series [4] (read-out: Ratio) is more than 18.
Turning to `CCCCOc1ccc2c(c1)sc1n[nH]c(=O)n12`, in series [9], the selectivity ratio was more than 51. This molecule displayed a TD50 in series [10] of more than 700 mg/kg. Moreover, the ED50 in the series filed under Mus musculus [11] was determined as 13.6 mg/kg.
Turning to `Nc1nnc(-c2ccccc2OCc2ccccc2F)o1`, the ED50 stood at 16.2 mg/kg in the series listed under Mus musculus [12] and 9 mg/kg in the series filed under Mus musculus [5].
As to `Clc1ccc(Oc2cccc3nncn23)cc1`, the selectivity ratio in [9] stood at 4.8. Besides, the TD50 in series [10] was determined as 63.4 mg/kg. In addition, in the series filed under Mus musculus [11], the ED50 was 13.2 mg/kg.
Take `COc1ccc(N2C(=S)N=C(c3ccccc3)CC2c2ccccc2)cc1` (configuration not stated): the ED50 worked out at 16.8 mg/kg in the series with Mus musculus [1] and 378 mg/kg in the series listed under Mus musculus [5]. The selectivity ratio amounted to 1.4 in series [2] (read-out: PI) and 31.8 in series [4] (read-out: PI). The TD50 in series [3] turned out to be 534 mg/kg.
With `CCCC(CCC)C(=O)[O-].[Na+]` [VALPROATE SODIUM], the ED50 with Mus musculus [1] was determined as 272 mg/kg. This molecule displayed a TD50 in series [3] of 42.6 mg/kg.
For `Nc1nc(-c2ccccc2)nnc1C(=O)N1CCCC1c1noc2cc(Br)ccc12` (configuration not stated), the ED50 with Mus musculus [7] is 12.2 mg/kg. In addition, the TD50 in series [3] was more than 100 mg/kg. For the same molecule, the selectivity ratio in series [4] (read-out: Ratio) was more than 8.22.
For `CN(C)Nc1ccc(/C=N/Nc2nnc(-c3ccccc3)nc2Cc2ccc(Cl)cc2)cc1`, the figures for the ED50 in the series with Mus musculus [1] and in the series listed under Mus musculus [5] were 46 mg/kg and 83.9 mg/kg, respectively. Moreover, the selectivity ratio came out at 4.29 in [2] (read-out: Ratio) and 7.82 in [4] (read-out: Ratio). The TD50 in series [3] was determined as 360 mg/kg.
Consider `S=C1N=C(c2ccccc2)CC(c2ccccc2)N1c1ccc(Cl)cc1` (configuration not stated), for which the ED50 in the series on Mus musculus [1] is 19.4 mg/kg; in the series listed under Mus musculus [5] it was 312 mg/kg. Moreover, the figures for the selectivity ratio in series [2] (read-out: PI) and in [4] (read-out: PI) were 1.3 and 21.6, respectively. The same molecule showed a TD50 in [3] of 420 mg/kg.
In [6], `CN1C(=O)CN=C(c2ccccc2)c2cc(Cl)ccc21` [DIAZEPAM] displayed an Activity of 88%. Further, the ED50 is 0.8 mg/kg in the series filed under Mus musculus [12] and 0.7 mg/kg in the series filed under Mus musculus [5].
Take `O=C1N=C([O-])NC1(c1ccccc1)c1ccccc1.[Na+]` [PHENYTOIN SODIUM]: the Activity with Mus musculus [8] worked out at 100%.
Take `Nc1ccc(Cl)cc1-c1n[nH]c(=O)n(-c2ccc(O)cc2)c1=O`: the ED50 in the series with Mus musculus [7] is 51.1 mg/kg; in the series listed under Mus musculus [13] it was 95.3 mg/kg. The figures for the selectivity ratio in series [2] (read-out: Ratio) and in series [4] (read-out: Ratio) were 7.15 and 13.6, respectively. The molecule also registered a TD50 in [3] of 682 mg/kg.
As for `Clc1ccc(Nc2nnc(-c3ccncc3)s2)cc1`, in the series on Mus musculus [8], the Activity was 100%.
Take `O=C1NC(=O)C(c2ccccc2)(c2ccccc2)N1` [PHENYTOIN]: the values for the ED50 with Mus musculus [1], in the series filed under Mus musculus [13] and in the series listed under Mus musculus [5] were 8.8 mg/kg, more than 300 mg/kg and more than 100 mg/kg, respectively.
`COc1ccc(-c2nc(N/N=C/c3ccc(O)cc3)[nH]c(=O)c2C#N)cc1`: the logP in [14] came out at 1.27.
Turning to `COc1ccc(-c2nc(N/N=C/c3cccc(F)c3)[nH]c(=O)c2C#N)cc1`, the logP in series [14] was determined as 2.13.
Turning to `COc1ccc(-c2nc(N/N=C/c3ccc(Br)cc3)[nH]c(=O)c2C#N)cc1`, the logP in [14] was 2.45.
For the molecule `CCCC(CCC)C(=O)O` [VALPROIC ACID], the Time in the series filed under Mus musculus [15] is 7.2 min.
As for `Nc1nc(-c2ccccc2)nnc1C(=O)N1CCCC1c1noc2cc(F)ccc12` (configuration not stated), in the series with Mus musculus [7], the ED50 turned out to be 6.2 mg/kg. In addition, the TD50 in [3] is more than 300 mg/kg. Further, in series [4] (read-out: Ratio), the selectivity ratio is more than 48.4.

What is called ED50 is the midpoint of the dose-response relation. For orientation: TD50 means the 50% point of the dose-response relation for the toxic effect studied. As a reminder, the logP is a log measure of how a compound divides between an organic and an aqueous phase. A higher logP goes with higher lipophilicity.

(Values after ChEMBL document CHEMBL4725277, “Synthetic and therapeutic perspectives of nitrogen containing heterocycles as anti-convulsants” (Bioorg Med Chem, 2020).)
